Source: US6653529B2, “Use of the maize X112 mutant ahas 2 gene and imidazolinone herbicides for selection of transgenic monocots, maize, rice and wheat plants resistant to the imidazolinone herbicides” (BASF Aktiengesellschaft, priority 2000, dated 2003)
Values joined by “and” are separate entries in the source; they are usually repeats but may differ in a detail not shown here. Equal entries are not always repeated.

Legend:
Type in all cases: in vivo
[1] = tested on: 3395IR (homozygous XA17 imi-resistant corn line); experiment: Greenhouse spray test of corn lines with imidazolinone herbicides, injury score; conditions: for Score, individual plants (0 dead plants, 5 healthy plants with no injury): 16 days after treatment; for M.S.: score 0 (dead) to 5 (healthy), 16 days
Text: (§1) Grow one corn plant per pot (5×5 inch) in a 3×5 flat till three- to four-leaf stage (about 9 to 13 days depending on the weather). On the day of spraying, water the plants well and let excess water drip out. Spray plants on a belt-sprayer with the imidazolinone herbicides at desired rates. […] When temperature was too high, base water plants to prevent wilting. Closely observe the plants for the next two to three weeks. Symptoms of herbicide injury will be visible three days after spraying and susceptible plants will die within two to three weeks depending on temperature.
(§2) The plants were rated on a scale of 0-5 with 0 for dead plants and 5 for healthy plants with no or minimum injury.
(§3) Two transgenic hybrids BAa-4 and MAa-7 lines (see FIG. 5 for their pedigree), a non-transformed control line B×A (B73×A188), 8962IT (heterozygous XI12 imi-tolerant corn line), 8962 (wild type control) and 3395IR (homozygous XA17 imi-resistant corn line) (8962IT and 8962 were from ICI, now Garst Seed Company, Slater, Iowa 50244, and 3395IR was from Pioneer Hi-Bred International Inc, Iowa 50306-3453). Plants were sprayed with 4, 8, 16 or 20×PURSUIT® imazethapyr, ARSENAL® imazapyr, CADRE® imazameth or RAPTOR® imazamox. Plants were scored 0 to 5 (with 0 being dead plants, 5 being healthy plants with no injury) individually 16 days after herbicide treatments. […] For the four tested imidazolinones, transgenic plants could tolerate higher rates of ARSENAL® imazapyr, PURSUIT® imazethapyr, than CADRE® imazameth and RAPTOR® imazamox.

[2] = tested on: non-transformed control corn line BxA (B73×A188); experiment: as above; conditions: for Score, individual plants (0 dead plants, 5 healthy plants with no injury): 16 days after treatment; for M.S.: score 0 (dead) to 5 (healthy), 16 days
Text: as §1, §2, §3

[3] = tested on: transgenic corn hybrid BAa-4; experiment: as above; conditions: for Score, individual plants (0 dead plants, 5 healthy plants with no injury) / M.S.: BAa-4; for Score, individual plants (0 dead plants, 5 healthy plants with no injury): 16 days after treatment; for M.S.: score 0 (dead) to 5 (healthy), 16 days
Text: as §1, §2, §3

[4] = tested on: transgenic corn hybrid MAa-7; experiment: as above; conditions: for Score, individual plants (0 dead plants, 5 healthy plants with no injury) / M.S.: MAa-7; for Score, individual plants (0 dead plants, 5 healthy plants with no injury): 16 days after treatment; for M.S.: score 0 (dead) to 5 (healthy), 16 days
Text: as §1, §2, §3

[5] = tested on: 8692 (wild type control corn line); experiment: as above; conditions: for Score, individual plants (0 dead plants, 5 healthy plants with no injury): 16 days after treatment; for M.S.: score 0 (dead) to 5 (healthy), 16 days
[6] = tested on: 8692IT (heterozygous XI12 imi-tolerant corn line); experiment: as above; conditions: for Score, individual plants (0 dead plants, 5 healthy plants with no injury): 16 days after treatment; for M.S.: score 0 (dead) to 5 (healthy), 16 days
[7] = tested on: rice plants (transgenic Lines 26 and 29; Nt control); experiment: Greenhouse herbicide tests on rice; conditions: for average seed set in two transgenic lines: PURSUIT, RAPTOR, CADRE, SCEPTER at all rates tested, ARSENAL 1 to 2×; for rate at which growth of transgenic plants was slightly affected: post-emergence, fresh weight and visual observation
How it was run: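 Pre-germinated T3 lines and untransformed Nt sprayed with imazethapyr (63, 125, 250 g ai/ha) 1 day (pre-emergence) or 15 days (post-emergence) after seeding; later nine herbicides at 1, 2, 4, 6× rates. Read-outs: height, tillers, panicles, yield, fresh weight at 29–32 days, seed set; three replicates.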

[8] = 4×: PURSUIT 250, RAPTOR 160, ARSENAL 96, CADRE 400 g/ha
[9] = 8×: PURSUIT 500, RAPTOR 320, ARSENAL 192, CADRE 800 g/ha
[10] = 16×: RAPTOR 640 g/ha, ARSENAL 384 g/ha, CADRE 1.6 kg/ha

`CCc1cnc(C2=NC(C)(C(C)C)C(=O)N2)c(C(=O)O)c1` (centres unmarked) [PURSUIT ®, imazethapyr] was tested, and the “Score, individual plants (0 dead plants, 5 healthy plants with no injury)” value [1, 8] was 5, the M.S. [1, 8] was 5 and the “Score, individual plants (0 dead plants, 5 healthy plants with no injury)” value [1, 9] was 5. The M.S. [1, 9] was 5, the “Score, individual plants (0 dead plants, 5 healthy plants with no injury)” value ([1]; 20×: PURSUIT 1.25 kg/ha) was 5 and the M.S. ([1]; 20×: PURSUIT 1.25 kg/ha) was 5. The “Score, individual plants (0 dead plants, 5 healthy plants with no injury)” value [2, 8] was 0, the M.S. [2, 8] was 0 and the “Score, individual plants (0 dead plants, 5 healthy plants with no injury)” value [2, 9] was 0. The M.S. [2, 9] was 0, the “Score, individual plants (0 dead plants, 5 healthy plants with no injury)” value ([2]; 20×: PURSUIT 1.25 kg/ha) was 0 and the M.S. ([2]; 20×: PURSUIT 1.25 kg/ha) was 0. The “Score, individual plants (0 dead plants, 5 healthy plants with no injury)” value [3, 8] was 5, the M.S. [3, 8] was 5 and the “Score, individual plants (0 dead plants, 5 healthy plants with no injury)” value [3, 9] was 5. For the same compound, the M.S. [3, 9] was 5, the “Score, individual plants (0 dead plants, 5 healthy plants with no injury)” value ([3]; 20×: PURSUIT 1.25 kg/ha) was 4 (3×) and 3 and 2 and the M.S. ([3]; 20×: PURSUIT 1.25 kg/ha) was 3.4. For the same compound, the “Score, individual plants (0 dead plants, 5 healthy plants with no injury)” value [4, 8] was 5, the M.S. [4, 8] was 5 and the “Score, individual plants (0 dead plants, 5 healthy plants with no injury)” value [4, 9] was 5. The M.S. [4, 9] was 5, the “Score, individual plants (0 dead plants, 5 healthy plants with no injury)” value ([4]; 20×: PURSUIT 1.25 kg/ha) was 0 and 3 and 2 (2×) and 4 and the M.S. ([4]; 20×: PURSUIT 1.25 kg/ha) was 2.2. For the same compound, the “Score, individual plants (0 dead plants, 5 healthy plants with no injury)” value [5, 8] was 2 (3×) and 1 (2×), the M.S. [5, 8] was 1.6 and the “Score, individual plants (0 dead plants, 5 healthy plants with no injury)” value [5, 9] was 0. For the same compound, the M.S. [5, 9] was 0, the “Score, individual plants (0 dead plants, 5 healthy plants with no injury)” value ([5]; 20×: PURSUIT 1.25 kg/ha) was 0 and the M.S. ([5]; 20×: PURSUIT 1.25 kg/ha) was 0. For the same compound, the “Score, individual plants (0 dead plants, 5 healthy plants with no injury)” value [6, 8] was 5, the M.S. [6, 8] was 5 and the “Score, individual plants (0 dead plants, 5 healthy plants with no injury)” value [6, 9] was 5 (4×) and 4. For the same compound, the M.S. [6, 9] was 4.8, the “Score, individual plants (0 dead plants, 5 healthy plants with no injury)” value ([6]; 20×: PURSUIT 1.25 kg/ha) was 4 (4×) and 3 and the M.S. ([6]; 20×: PURSUIT 1.25 kg/ha) was 3.8. For the same compound, the “average seed set in two transgenic lines” value [7] was “about 85%”, the “rate at which growth of transgenic plants was slightly affected” value [7] was 6 × and the “fate of transgenic plants of Lines 26 and 29” value ([7]; pre-emergence, 63, 125, 250 g/ha) was “survived at all rates applied”.
In the case of `COCc1cnc(C2=NC(C)(C(C)C)C(=O)N2)c(C(=O)O)c1` (centres unmarked) [RAPTOR ®, imazamox], the “Score, individual plants (0 dead plants, 5 healthy plants with no injury)” value [1, 8] is reported as 5, the M.S. [1, 8] is reported as 5 and the “Score, individual plants (0 dead plants, 5 healthy plants with no injury)” value [1, 9] is reported as 5. The M.S. [1, 9] was 5, the “Score, individual plants (0 dead plants, 5 healthy plants with no injury)” value [1, 10] was 5 and the M.S. [1, 10] was 5. For the same compound, the “Score, individual plants (0 dead plants, 5 healthy plants with no injury)” value [2, 8] was 0, the M.S. [2, 8] was 0 and the “Score, individual plants (0 dead plants, 5 healthy plants with no injury)” value [2, 9] was 0. For the same compound, the M.S. [2, 9] was 0, the “Score, individual plants (0 dead plants, 5 healthy plants with no injury)” value [2, 10] was 0 and the M.S. [2, 10] was 0. For the same compound, the “growth of transgenic line BAa-4” value ([3]; 4× (160 g/ha)) was “slightly affected”, the “Score, individual plants (0 dead plants, 5 healthy plants with no injury)” value [3, 8] was 3 and 4 (4×) and the M.S. [3, 8] was 3.8. For the same compound, the “Score, individual plants (0 dead plants, 5 healthy plants with no injury)” value [3, 9] was 4 (4×) and 0, the M.S. [3, 9] was 3.2 and the “Score, individual plants (0 dead plants, 5 healthy plants with no injury)” value [3, 10] was 3 and 0 (3×) and 1. The M.S. [3, 10] was 0.8, the “performance of transgenic line MAa-7” value ([4]; 4× (160 g/ha)) was “performed well” and the “Score, individual plants (0 dead plants, 5 healthy plants with no injury)” value [4, 8] was 4 and 5 (4×). The M.S. [4, 8] was 4.8, the “Score, individual plants (0 dead plants, 5 healthy plants with no injury)” value [4, 9] was 3 (3×) and 2 and 4 and the M.S. [4, 9] was 3. For the same compound, the “Score, individual plants (0 dead plants, 5 healthy plants with no injury)” value [4, 10] was 1, the M.S. [4, 10] was 1 and the “Score, individual plants (0 dead plants, 5 healthy plants with no injury)” value [5, 8] was 0. For the same compound, the M.S. [5, 8] was 0, the “Score, individual plants (0 dead plants, 5 healthy plants with no injury)” value [5, 9] was 0 and the M.S. [5, 9] was 0. For the same compound, the “Score, individual plants (0 dead plants, 5 healthy plants with no injury)” value [5, 10] was 0, the M.S. [5, 10] was 0 and the “Score, individual plants (0 dead plants, 5 healthy plants with no injury)” value [6, 8] was 4 and 3 (3×) and 2. For the same compound, the M.S. [6, 8] was 3, the “Score, individual plants (0 dead plants, 5 healthy plants with no injury)” value [6, 9] was 3 (2×) and 2 (2×) and the M.S. [6, 9] was 2.5. For the same compound, the “Score, individual plants (0 dead plants, 5 healthy plants with no injury)” value [6, 10] was 2 (2×) and 1 and 0 (2×), the M.S. [6, 10] was 1 and the “average seed set in two transgenic lines” value [7] was “about 85%”. The “rate at which growth of transgenic plants was slightly affected” value [7] was 6 × and the “rate at which growth of both transgenic lines was affected” value ([7]; pre-emergence) was 6 ×.
